What was measured:
[1] = tested on: uterine C3 expression (complement 3 mRNA; PR antagonist potential); experiment: C3 Rat Uterine Assay; assay type: in vivo, Sprague Dawley female rats; details: immature female rats, oral gavage, with R5020 0.1 mg/kg sc and ethynyl estradiol 50 ug/kg, 3 doses at 24 hour intervals
Experimental: Addition of a potential PR antagonist can then neutralize the blocking effect of the PR agonist, resulting in a measurable increase in uterine C3 expression.
Immature Sprague Dawley female rats (21 days old, each approximately 50 g in weight) are first administered the R5020 progestin subcutaneously in sesame oil vehicle at 0.1 mg/kg. The rats are then treated with ethynyl estradiol at a dose of 50 ug/kg plus a compound of interest at doses ranging from 1-30 mg/kg made up in 20% β-hydroxycyclodextran in water for an oral gavage volume of 0.3 ml. This dosing is done 3 times at 24 hour intervals. The control groups include rats treated with one of the following (administered and dosed as described above): 1) estrogen (E2) vehicle+R5020 vehicle, 2) E2+R5020 vehicle, 3) E2+R5020, and 4) E2+R5020+asoprisnil (comparator compound, 5 mg/kg). The rats are sacrificed by decapitation 2 hours after the final dose (50 hours total dosing time). Uteri are removed and cleaned of adipose tissue, and ½ (1 uterine horn) is flash-frozen in liquid nitrogen. The tissue is homogenized in TRIzol reagent using lysing matrix beads.
The RNA is isolated by chloroform extraction of the homogenized tissue, followed by isopropanol precipitation of the aqueous layer. The RNA is further purified by binding to a silica-gel based membrane or magnetic bead with a nucleic acid binding surface, and then eluted off with water. The RNA is converted to single strand cDNA via reverse transcriptase. These cDNA templates are analyzed by quantitative real-time PCR which multiplexes the C3 primer/probe set to an endogenous control gene. The resulting C3 data is normalized to the internal control. (Adapted from Lundeen, S. G. et al. J. Steroid Biochemistry and Molecular Biology, 2001, 78, 137-143.) Table 9 below provides data for representative compounds prepared according to the present invention.

[2] = biological target: T1, human progesterone receptor (PR) (Homo sapiens, UniProt P06401); experiment: PR CTF assay (co-transfected HEK293 cells, GRE-luciferase reporter); assay type: cell-based; details: antagonist mode, with 0.05-0.08 nM R5020, 24 h
T1 construct: expressed in transfected cells; host or cells: HEK293
T1 sequence (P06401 1-933): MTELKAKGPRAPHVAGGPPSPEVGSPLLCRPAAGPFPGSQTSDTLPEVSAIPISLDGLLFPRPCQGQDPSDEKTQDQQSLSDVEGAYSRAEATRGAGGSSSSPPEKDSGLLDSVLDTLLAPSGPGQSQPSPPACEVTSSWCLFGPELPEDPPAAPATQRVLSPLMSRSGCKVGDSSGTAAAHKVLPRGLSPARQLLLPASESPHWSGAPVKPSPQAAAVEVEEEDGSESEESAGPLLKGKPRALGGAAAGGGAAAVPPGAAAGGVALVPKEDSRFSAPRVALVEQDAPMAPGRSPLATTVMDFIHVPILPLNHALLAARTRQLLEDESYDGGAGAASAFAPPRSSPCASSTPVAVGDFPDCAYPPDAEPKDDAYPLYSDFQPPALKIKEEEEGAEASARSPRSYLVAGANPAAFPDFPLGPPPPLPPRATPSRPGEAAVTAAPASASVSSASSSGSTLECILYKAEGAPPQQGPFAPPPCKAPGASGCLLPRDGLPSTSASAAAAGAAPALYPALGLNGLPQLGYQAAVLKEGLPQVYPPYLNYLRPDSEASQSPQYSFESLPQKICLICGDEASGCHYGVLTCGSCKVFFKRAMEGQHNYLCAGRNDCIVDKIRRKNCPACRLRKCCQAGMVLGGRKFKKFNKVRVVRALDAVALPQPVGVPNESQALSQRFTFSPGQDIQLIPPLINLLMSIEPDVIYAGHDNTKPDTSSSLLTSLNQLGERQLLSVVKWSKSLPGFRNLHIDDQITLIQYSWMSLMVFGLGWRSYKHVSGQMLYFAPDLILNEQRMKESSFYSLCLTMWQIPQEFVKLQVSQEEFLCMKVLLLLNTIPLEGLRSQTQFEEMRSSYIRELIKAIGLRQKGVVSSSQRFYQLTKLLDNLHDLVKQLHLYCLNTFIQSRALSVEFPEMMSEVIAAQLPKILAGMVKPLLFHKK
Experimental: Human embryonic kidney HEK293 cells are co-transfected using Fugene. Briefly, the reporter plasmid pGL3 containing two copies of GRE (glucocorticoid response element ^5'[NT]3) and TK promoter upstream of the luciferase reporter cDNA is transfected with a plasmid constitutively expressing human progesterone receptor (PR), using viral CMV promoter. Cells are transfected in T225 cm^2 flasks in DMEM media with 5% charcoal-stripped Fetal Bovine Serum (FBS). After an overnight incubation, transfected cells are trypsinized, plated in 96 well dishes in DMEM media containing 5% charcoal-stripped FBS, incubated for 4 h and then exposed to various concentrations of test compounds in 1:4 dilution increments. In the antagonist assays low concentrations of agonist (0.05-0.08 nM of R5020) is also added to the media. After 24 h of incubation with compounds, cells are lysed and luciferase activity is determined. Data is fit to a 4 parameter-fit logistics curve to determine EC50 and IC50 values. The % efficacy is determined versus maximum stimulation obtained with 30 nM R5020. In the antagonist mode the % inhibition is determined verses the effects of 30 nM R5020 alone.

[3] = tested on: uterine endometrial transformation; experiment: McPhail Assay; assay type: in vivo, New Zealand White Rabbits; details: rabbits; for McPhail Index** @ 10 mpk (Antagonist Mode): in combination with progesterone on days 7-12, antagonist mode; for McPhail Index** @ 30 mpk (Agonist Mode): compound alone on days 7-12, agonist mode
Experimental: The effects of progesterone receptor modulators on uterine endometrial transformation are evaluated in New Zealand White Rabbits (Harlan, 800-900 g) using the McPhail assay adapted from McPhail, MK. J Physiol, 1934:145-156. To evaluate antagonistic effects of compounds, the rabbits are treated sc with cyclodextrin-encapsulated 17-β-estradiol (Sigma, 10.52 ug/kg/day in 1 ml of saline) on days 1-6. The rabbits are then treated sc with progesterone (Sigma, 1.0 mg/kd/day in 1 ml of corn oil) in combination with compound of the present invention (in 15% Povidone K12, 10% Pluronic F68 (poloxamer 188) in deionized water (DIW): probe sonicated to mean<2 micron, 3 ml dose volume) on days 7-12. To evaluate agonist effects of compound, the rabbits are treated with either a compound of interest or progesterone alone on days 7-12. On day 13 the animals are sacrificed, uteri removed and fixed in zinc formalin (Richard-Allan Scientific). The fixed uteri are sectioned into 2-3 mm transverse slices and stained with haematoxylin and eosin. A total of six slices (a proximal, medial and distal section from each uterine horn) are evaluated histologically and the progestational effect is scored using the McPhail index. The McPhail test can be used to identify SPRMs.

IC50 [2] | melting point | Structure (SMILES) | ED50 [1] | McPhail Index** @ 10 mpk (Antagonist Mode) [3] | McPhail Index** @ 30 mpk (Agonist Mode) [3]
 |  | Cc1cc(-c2cn(C(C)C)c3cc(NS(C)(=O)=O)ccc23)ccc1C#N [Ex 49, N-[3-(4-Cyano-3-methyl-phenyl)-1-isopropyl-1H-indol-6-yl]-methanesulfonamide] | < 5 mg/kg |  | 
~11.7 nM |  | CC(C)n1cc(-c2ccc(C#N)nc2)c2ccc(NS(C)(=O)=O)cc21 [Example 48, N-[3-(6-Cyano-pyridin-3-yl)-1-isopropyl-1H-indol-6-yl]-methanesulfonamide] | < 5 mg/kg | + (+ <2) | + (+ <2)
 |  | CC(C)n1cc(-c2ccc(C#N)c(Cl)c2)c2ccc(NS(C)(=O)=O)cc21 [Example 50, N-[3-(4-Cyano-3-chloro-phenyl)-1-isopropyl-1H-indol-6-yl]-methanesulfonamide] | < 5 mg/kg | + (+ <2) | + (+ <2)
 |  | CCCCn1cc(-c2ccc(C#N)c(F)c2)c2ccc(NS(C)(=O)=O)cc21 [Example 53, N-[1-Butyl-3-(4-cyano-3-fluoro-phenyl)-1H-indol-6-yl]-methanesulfonamide] | > 10 mg/kg | +++ (+++ ≧3) | ++ (++ 2-3)
 | 189 to 191 °C | CC(C)n1cc(-c2cc(C#N)nn2C)c2ccc(NS(C)(=O)=O)cc21 [Example 121, N-[3-(5-Cyano-2-methyl-2H-pyrazol-3-yl)-1-isopropyl-1H-indol-6-yl]-methanesulfonamide] |  |  | 
 | 144 to 145 °C | CCn1nc(C#N)cc1-c1cn(C(C)C)c2cc(NS(C)(=O)=O)ccc12 [Example 124, N-[3-(5-Cyano-2-ethyl-2H-pyrazol-3-yl)-1-isopropyl-1H-indol-6-yl]-methanesulfonamide] |  |  | 
 |  | CC(C)n1cc(-c2cc(F)c(C#N)c(F)c2)c2ccc(NS(C)(=O)=O)cc21 [Example 170, N-[3-(4-Cyano-3,5-difluoro-phenyl)-1-isopropyl-1H-indol-6-yl]-methanesulfonamide] | < 5 mg/kg | +++ (+++ ≧3) | +++ (+++ ≧3)
 |  | CC(C)n1cc(-c2ccc([N+](=O)[O-])cc2)c2ccc(NS(C)(=O)=O)cc21 [Example 197, N-[1-Isopropyl-3-(4-nitro-phenyl)-1H-indol-6-yl]-methanesulfonamide] | < 5 mg/kg | ++ (++ 2-3) | + (+ <2)

— patent publication US7932284B2, “Indole sulfonamide modulators of progesterone receptors” (Eli Lilly and Company, priority 2006, dated 2011)
